# Measured values from patent publication US10653144B2, “Pesticidal and parasiticidal vinyl isoxazoline compounds” (BOEHRINGER INGELHEIM ANIMAL HEALTH USA INC., priority 2016, dated 2020).
# Tested on: A. aegypti L1 larvae
# Assay: A. aegypti L1 larvae motility dose response assay
# Conditions: Aedes aegypti, 48 h, diluted LB media, 25° C., motility vs DMSO control wells
# Method: Efficacy of Compounds Against A. aegypti Mosquitos Compounds were formulated in 100% DMSO are added to microtiter plates containing 180 μl of diluted LB media (Luria-Bertani media is a combination of tryptone, salt and yeast extract). Ten A. aegypti L1 larvae are added and the plates are incubated at 25° C. for 48 h. The efficacy of a compound is determined based on the motility of the larvae as compared to average motility of control wells containing DMSO only. A dose response assay was conducted to determine an EC50 value.
row,Structure (SMILES),EC50 [µM]
1,"O=C(CNC(=O)c1ccc(/C=C/C2=NOC(c3cc(Cl)cc(C(F)(F)F)c3)(C(F)(F)F)C2)c2ccccc12)NCC(F)(F)F (stereo not shown) [Compound 1, 2-([4-[2-[5-[3-chloro-5-(trifluoromethyl)phenyl]-5-(trifluoromethyl)-4,5-dihydro-1,2-oxazol-3-yl]ethenyl]naphthalen-1-yl]formamido)-N-(2,2,2-trifluoroethyl)acetamide]",≤ 20
2,"O=C(NCCC(F)(F)F)c1ccc(/C=C/C2=NOC(c3cc(Cl)cc(C(F)(F)F)c3)(C(F)(F)F)C2)c2ccccc12 (stereo not shown) [Compound 2, 4-[2-[5-[3-chloro-5-(trifluoromethyl)phenyl]-5-(trifluoromethyl)-4,5-dihydro-1,2-oxazol-3-yl]ethenyl]-N-(3,3,3-trifluoropropyl)naphthalene-1-carboxamide]",≤ 20
3,"O=C(CNC(=O)c1ccc(/C=C/C2=NOC(c3cc(Cl)cc(C(F)(F)F)c3)(C(F)(F)F)C2)n2cncc12)NCC(F)(F)F (stereo not shown) [Compound 5, 2-([5-[2-[5-[3-chloro-5-(trifluoromethyl)phenyl]-5-(trifluoromethyl)-4,5-dihydro-1,2-oxazol-3-yl]ethenyl]imidazo[1,5-a]pyridin-8-yl]formamido)-N-(2,2,2-trifluoroethyl)acetamide]",≤ 20
4,"O=C(NCCC(F)(F)F)c1ccc(/C=C/C2=NOC(c3cc(Cl)cc(C(F)(F)F)c3)(C(F)(F)F)C2)n2cncc12 (stereo not shown) [Compound 6, 5-[2-[5-[3-chloro-5-(trifluoromethyl)phenyl]-5-(trifluoromethyl)-4,5-dihydro-1,2-oxazol-3-yl]ethenyl]-N-(3,3,3-trifluoropropyl)imidazo[1,5-a]pyridine-8-carboxamide]",≤ 20
